Going from `COc1ccc(-c2ccncc2)cc1-c1ccc(F)c(Cl)c1` to `CCOC(=O)c1nn(-c2ccc(Cl)cc2Cl)c(-c2ccc(Cl)cc2)c1C#N`, the melting point falls from 115 °C to 112 °C.

Compared with `CCCCNc1c(C(=O)OCC)c(C)nc2c1nnn2CC`, `CCCCCC(=O)Nc1nc2cc(Cl)ccc2nc1NC(=O)CC` is higher in melting point: 42 to 43 °C for the first, 158 to 160 °C for the second.

Compared with `Cc1ccccc1C(=O)P1(=O)Oc2ccccc2-c2ccccc21` (stereo unspecified), `CC(=O)Oc1ccccc1-c1nn2cc(-c3ccccc3)nc2s1` is higher in melting point: 102 to 104 °C for the first, 177 °C for the second.

Compared with `FC(F)(F)c1nc(Cl)sc1C(=S)OCc1ccccc1`, `COC(=O)c1ccccc1-n1c(CCl)nc2ccc(C(F)(F)F)cc2c1=O` is higher in melting point: 61 to 63 °C for the first, 169 to 170 °C for the second.

First: O=C1c2ccc(Cl)cc2C(=O)N1CC(=O)N1c2ccccc2N(Cc2ccccc2)C(=O)[C@H]2CCC[C@H]21 (relative stereo)
Second: Cc1cc(Cn2c(-c3ccccc3)nc(Cl)c2CC(=O)O)ccc1OCc1ccccc1
The melting point of the first is higher: 237 to 238 °C for the first, 177 to 178 °C for the second.

First: N#CN1CCC(c2nsc3ccccc23)CC1
Second: OC1CC(CN2CCC(c3ccccc3)CC2)CCc2ccccc21 (stereo unspecified)
The melting point of the first is higher: 118 to 120 °C for the first, 48 to 50 °C for the second.

First: CC(C)(Cc1cc(F)cc(F)c1)NCC(O)c1cc(OCc2ccccc2)cc2c1OCC(=O)N2 (stereo unspecified)
Second: CSc1ccc(C[C@H](CO)NC(=O)OCc2ccccc2)cc1
The melting point of the first is higher: 150 to 158 °C for the first, 115 to 117 °C for the second.

Compared with `Cc1c(Cl)cc(C#N)n1CCC(C)NC(=O)C(C#N)C(C)C(C)(C)C` (stereo unspecified), `CC(C)(C)[Si](C)(C)Oc1ccc(NC(=O)CCCl)cc1` is higher in melting point: 111 to 118 °C for the first, 126 °C for the second.

First: O=C(NC(Cc1c[nH]cn1)C(=O)NC(Cc1ccc(OCc2ccccc2)cc1)C(=O)NCCOCc1ccccc1)OCc1ccccc1 (stereo unspecified)
Second: c1ccc(COc2ccc(-c3nc(COc4cccc(CCCCn5ccnc5)c4)co3)cc2)cc1
The melting point of the first is higher: 161 to 165 °C for the first, 87 to 88 °C for the second.

First: CC(C)OC(=O)N1CCC(c2nc3cc(-c4ccc(C=O)cc4)ccc3o2)CC1
Second: O=C1COc2ccc(NCC(=O)N3CCC(Cc4ccc(F)cc4)CC3)cc2N1
The melting point of the first is lower: 167 to 170 °C for the first, 220 to 223 °C for the second.

First: COc1ccc(C(=O)Nc2ccccc2C(O)Cc2ccccn2)cc1 (stereo unspecified)
Second: CCOc1ccc(NC(=O)NCCc2ccccn2)cc1
The melting point of the first is lower: 127 to 128 °C for the first, 163 to 164 °C for the second.

First: CC(=O)Nc1snc(C)c1[N+](=O)[O-]
Second: COC(=NS(=O)(=O)c1nc(-c2ccccc2C)ns1)C(C)C
The melting point of the first is higher: 210 °C for the first, 116 to 118 °C for the second.

First: CC(C)(C)OC(=O)c1nc(-c2ccccc2)[nH]c1-c1cccnc1
Second: CCOC(=O)Cn1c(-c2ccc(F)cc2)nc2cccnc21
The melting point of the first is higher: 196 to 197 °C for the first, 126 to 128 °C for the second.

First: CN(CCC(=O)O)c1ccccc1CNC(=O)C1Cc2ccccc2N1S(=O)(=O)c1ccc(-c2ccc(F)cc2Cl)cc1 (stereo unspecified)
Second: COC(=O)c1ccc(OCCNC(=O)C2Cc3ccccc3N2S(=O)(=O)c2ccc(-c3ccc(F)cc3)cc2)c(C(F)(F)F)c1 (stereo unspecified)
The melting point of the first is lower: 75 to 83 °C for the first, 90 to 95 °C for the second.

First: CC(C)Sc1nc2c(cc1C#N)C(=O)CC(C)(C)C2
Second: CC(=O)C1=C(Nc2ccc(C3=NNC(=O)CC3)cc2)CC(C)(C)CC1=O
The melting point of the first is lower: 135 to 136 °C for the first, 212 to 214 °C for the second.

Compared with `CC1CCCN(c2ccc(Cl)cc2C(C)C(C(N)=O)c2ccc(C(=O)O)cc2)C1` (stereo unspecified), `COC(=O)C(C)c1ccc2nc3ccc(Cl)cn3c(=O)c2c1` (stereo unspecified) is lower in melting point: 208 to 210 °C for the first, 173 °C for the second.

First: O=C(O)CCCCC1Cc2ccc(F)cc2C1=O (stereo unspecified)
Second: CCCCc1ccc(CCCC(=O)O)cc1
The melting point of the first is higher: 122 to 123 °C for the first, 56 to 58 °C for the second.

Compared with `Cc1nn(C)cc1C(=O)Nc1ccccc1`, `O=C(O)c1ccc(=O)n(-c2ccccc2)c1` is higher in melting point: 91 to 92 °C for the first, 115 to 120 °C for the second.

First: CC1=C(C(=O)OCCCN(C)Cc2ccccc2)C(c2ccccc2C(F)(F)F)c2c(ccnc2OC(C)C)N1 (stereo unspecified)
Second: CCc1nc2cc(C(F)(F)F)c(Cl)cc2n1-c1ccc(CCOC(=O)NS(=O)(=O)c2cccc3c(N(C)C)cccc23)cc1
The melting point of the first is lower: 143 to 144 °C for the first, 203 °C for the second.

Compared with `CN(C)c1nc(-c2cccc3ccccc23)co1`, `CCc1noc(-c2cn(-c3cccc(OC)c3)cn2)n1` is higher in melting point: 30 to 32 °C for the first, 89 to 90 °C for the second.

Compared with `COCOc1cc(Cl)ccc1-c1cc(-c2cccc([N+](=O)[O-])c2)c(C#N)c(NC(=O)c2ccco2)n1`, `N#CCCNC(=O)c1cccc(-c2cccc3nn(Cc4ccccc4)cc23)c1` is lower in melting point: 154 to 155 °C for the first, 143 to 144 °C for the second.

Compared with `Clc1nc2ccccc2c2c(CCN3CCN(Cc4ccccc4)CC3)n(-c3ccccc3)nc12`, `OC(CCc1ccccc1)(c1ccccc1)c1cncn1Cc1ccccc1` (stereo unspecified) is higher in melting point: 75 to 77 °C for the first, 196 to 198 °C for the second.

First: O=C(O)Cc1cccc2c(-c3ccc(Cl)cc3)noc12
Second: O=C(Nc1cccc(S(=O)(=O)N2CCCC2CO)c1)c1cnn2c(C3CC3)cc(-c3ccc(Cl)cc3)nc12 (stereo unspecified)
The melting point of the first is lower: 110 to 125 °C for the first, 180 to 182 °C for the second.

First: CCCCN(CCCC)C(=O)CN1CC(c2ccc3c(c2)OCO3)C(C(=O)O)C1c1ccncc1 (stereo unspecified)
Second: CCON=C(CC)C1=C(O)CC(c2ccc(C(=O)OC)cc2)CC1=O (stereo unspecified)
The melting point of the first is higher: 131 to 132 °C for the first, 75 to 76 °C for the second.

First: O[C@@H]1C=CO[C@H](COCc2ccccc2)[C@H]1OCc1ccccc1
Second: O=C(Nc1cccc(O)c1)C(=O)N1CCC(Cc2ccccc2)CC1
The melting point of the first is lower: 53 °C for the first, 158 to 160 °C for the second.

First: CC(C)C(NC(=O)OCCN1CCOCC1)C(=O)NC(Cc1ccccc1)C(O)C(Cc1ccccc1)NC(=O)C(NC(=O)OCCN1CCOCC1)C(C)C (stereo unspecified)
Second: CN(CCN1CCOCC1)c1ccc(OCC(=O)N[C@@H](CC(N)=O)C(=O)N[C@@H](Cc2ccccc2)[C@H](O)C(=O)N2CCC[C@H]2C(=O)NC(C)(C)C)cc1
The melting point of the first is higher: 122 to 123 °C for the first, 85 to 95 °C for the second.

First: CC(=O)C1=C(O)CC(C)OC1=O (stereo unspecified)
Second: CC(C)(C)N[C@@H]1Cc2c(O)cccc2C[C@H]1O (relative stereo)
The melting point of the first is lower: 96 to 98 °C for the first, 123 to 127 °C for the second.

First: Cc1ccc(N=C2SCS2)cc1
Second: CN(C=C(C#N)C#N)c1ccc(O)cc1
The melting point of the first is lower: 54.5 to 55 °C for the first, 187 to 189 °C for the second.

First: N#Cc1[nH]n(-c2ccccc2)c(=O)c1N=Nc1cc(S(=O)(=O)Cl)ccc1Cl
Second: CC(=O)c1ccc(NS(C)(=O)=O)c(Oc2ccccc2F)c1
The melting point of the first is higher: 115 to 120 °C for the first, 92 to 94 °C for the second.

Compared with `COc1ccc(/C=C/C(=O)Nc2ccccc2C(=O)O)cc1`, `CCCCOc1ccc(NC(=O)NCC2(c3ccccc3)CCCCC2)cc1` is lower in melting point: 194 to 195 °C for the first, 142 to 143 °C for the second.

First: CC=CCNc1cc(C(=O)O)cc(S(=O)(=O)Nc2ccc(NC(C)=O)cc2)c1Nc1ccc(NC(C)=O)cc1
Second: CC(=O)Nc1c(I)c(NC(C)=O)c(I)c(C(=O)OCC(O)CO)c1I (stereo unspecified)
The melting point of the first is higher: 265 °C for the first, 207 °C for the second.

First: COC(NC(=O)c1ccccc1O)C(Cl)(Cl)Cl (stereo unspecified)
Second: COc1ccc(CCNC(=O)N(O)C(C)C)cc1OC
The melting point of the first is higher: 117 to 118 °C for the first, 113 to 114 °C for the second.

First: O=C(NCCCCCCCCCCCO[N+](=O)[O-])c1ccc(N2CCNCC2)nc1
Second: CCOC(=O)COc1ccccc1-c1nc2n(C3CCCC3)[nH]c(CC)c-2c(=O)n1
The melting point of the first is lower: 78 to 80 °C for the first, 116 to 117 °C for the second.

Compared with `COc1ccc(C2=NN(C3CCN(S(=O)(=O)c4ccc(C)cc4)CC3)C(=O)C(C)(C)C2)cc1OC`, `COc1ccc(C(C)=NNc2ccc(C3=NNC(=O)CC3)cc2)cc1` is higher in melting point: 161 to 164 °C for the first, 204 to 207 °C for the second.

Compared with `CCCc1c(S)ccc2c(=O)c(C(=O)OC)coc12`, `CCNCC1CN(c2c(F)cc3c(=O)c(C(=O)O)cn(-c4ccc(F)cc4F)c3c2F)CCO1` (stereo unspecified) is higher in melting point: 98 to 99 °C for the first, 226 to 229 °C for the second.

First: O=c1c2ccc(Cl)cc2[nH]c2c(O)nn(-c3ccc(O)c(Cl)c3)c(=O)c12
Second: CCc1ccc2c(c1)C=Cc1cc(C)ccc1C2c1cn(-c2ccnc(N3CC(C(=O)O)C3)n2)c(=O)[nH]c1=O (stereo unspecified)
The melting point of the first is higher: 350 to 353 °C for the first, 244 °C for the second.

Compared with `CNCC1Cc2cc(F)cc(-c3c(Cl)cccc3Cl)c2O1` (stereo unspecified), `Fc1ccc(OCc2cccc(Oc3ccnc(Cl)c3)n2)cc1` is lower in melting point: 140 to 142 °C for the first, 103 °C for the second.

Compared with `C[C@H]1Cc2cccc3sc(=O)n(c23)C1`, `NCc1cn(C2CCc3ccccc3C2)c(=S)[nH]1` (stereo unspecified) is higher in melting point: 54 to 56 °C for the first, 197 to 200 °C for the second.

First: C=CCOc1ccc2c(C)c(F)c(=O)oc2c1C
Second: COC(=O)C1=C(C)NC(C)=C(C(=O)OC)C1c1cc([N+](=O)[O-])ccc1OC/C=C/CCl
The melting point of the first is lower: 117 °C for the first, 206 to 207 °C for the second.

First: COc1nccc(-c2c(-c3ccc(F)cc3)ncn2[C@H]2CC[C@H](O)CC2)n1
Second: CN(C)C(=O)n1ccc(-c2ccc(Oc3ccc(F)cc3)cc2)n1
The melting point of the first is higher: 188 to 190 °C for the first, 59 to 63 °C for the second.

First: Cc1nnc(-c2ccc3occ(-c4ccc(S(=O)CF)cc4)c3c2)o1 (stereo unspecified)
Second: COCOc1ccc(C(=O)Cn2c(-c3nonc3N)nc3ccccc32)cc1OC
The melting point of the first is lower: 173 to 174 °C for the first, 190 °C for the second.

First: CN1CCOc2cc3c(cc21)OCC31C(=O)N(CC2CCCO2)c2ccccc21 (stereo unspecified)
Second: COC(=O)C=Cc1ccc(N2CCN(CCC3CCN(C(=O)OC(C)(C)C)CC3)C2=O)cc1
The melting point of the first is lower: 138 to 140 °C for the first, 148 to 149 °C for the second.

First: BrCc1cc(-c2ccccc2)cs1
Second: ON=C1c2ccccc2-c2c1c(-n1ccnc1)nc1ccc(Br)cc21
The melting point of the first is lower: 87 to 88.5 °C for the first, 268 to 271 °C for the second.

Compared with `O=c1ccc(-c2ccco2)n[nH]1`, `COC(=O)c1sccc1Nc1ccc(F)cc1[N+](=O)[O-]` is lower in melting point: 183 to 184 °C for the first, 172 to 175 °C for the second.

First: COCC(COC)Oc1cc(Oc2ccc(S(C)(=O)=O)nc2)cc2cc(C3=NCC(CCO)S3)[nH]c12 (stereo unspecified)
Second: CCCCOC(=O)NS(=O)(=O)CCc1c(C(F)(F)F)nn(C)c1-n1ccc2cc(Cl)cnc21
The melting point of the first is lower: 69 to 71 °C for the first, 136 to 137 °C for the second.

First: CON=C(C(=O)O)c1nc(NC=O)sc1Br
Second: CCOC(=O)Nc1cc2nc(O)c(O)nc2cc1Cl
The melting point of the first is lower: 165 to 167 °C for the first, over 300 °C for the second.

Compared with `CC1(C)C=CC=CC1NCC1=NCCN1` (stereo unspecified), `CCOC[C@@H]1[C@H](c2ccc(Cl)c(Cl)c2)C[C@H]2CC[C@@H]1N2C` is lower in melting point: 80 to 82 °C for the first, 52.5 to 54.5 °C for the second.

Compared with `Cc1cc(SC2=C(O)CC(CCc3ccco3)(C(C)C)OC2=O)c(C(C)(C)C)cc1CO` (stereo unspecified), `O=[N+]([O-])c1cccc(C=[N+]([O-])c2cccc(CO)c2)c1` is higher in melting point: 64 to 110 °C for the first, 177 to 179 °C for the second.

From a melting point compilation (Tetko et al.; mined from patent text by program, amines drawn as free bases though some values may be those of a salt)
